Measured values from patent publication US20250145594A1, “MODULATORS OF THE INTEGRATED STRESS PATHWAY” (Calico Life Sciences LLC, priority 2020, published 2025).

System: ATF4 luciferase reporter in HEK293T cells
Experiment: ATF4-Luc assay (in vitro model of VWMD)
Format: cell-based, human
Conditions: Homo sapiens, HEK-293T, 7 h, HEK293T cells carrying the ATF4 luciferase reporter, 1 μg/mL tunicamycin, One Glo luminescence
Summary of the method: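 Tunicamycin (1 μg/mL) stress with co-added compound for 7 hours in HEK293T cells stably carrying an ATF4 5′-UTR–luciferase reporter. EC50 values come from the luminescent signal (One Glo).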

SMILES	EC50 [nM]
O=C(CO[C@H]1C[C@@H](OC(F)(F)F)C1)NC12CC(NC(=O)[C@@H]3C[C@@H](O)c4cc(Cl)c(Cl)cc4O3)(C1)C2 [Compound 492, (2S,4R)-6,7-dichloro-4-hydroxy-N-[3-(2-{[(1s,3R)-3-(trifluoromethoxy)cyclobutyl]oxy}acetamido)bicyclo[1.1.1]pentan-1-yl]-3,4-dihydro-2H-1-benzopyran-2-carboxamide]	< 10
O=C(NC12CC(c3ccnc(-n4cc(C(F)(F)F)cn4)c3)(C1)C2)[C@H]1C[C@@H](O)c2cc(Cl)c(F)cc2O1 [Compound 561, (2R,4R)-6-chloro-7-fluoro-4-hydroxy-N-(3-{2-[4-(trifluoromethyl)-1H-pyrazol-1-yl]pyridin-4-yl}bicyclo[1.1.1]pentan-1-yl)-3,4-dihydro-2H-1-benzopyran-2-carboxamide]	< 10
O=C(NC12CC(n3cc(N4CCN(CC(F)(F)F)CC4=O)cn3)(C1)C2)[C@H]1C[C@@H](O)c2cc(Cl)ccc2O1 [Compound 383, (2R,4R)-6-chloro-4-hydroxy-N-(3-{4-[2-oxo-4-(2,2,2-trifluoroethyl)piperazin-1-yl]-1H-pyrazol-1-yl}bicyclo[1.1.1]pentan-1-yl)-3,4-dihydro-2H-1-benzopyran-2-carboxamide]	< 10
O=C(NC12CC(n3cc(-c4ccc(OC(F)(F)F)cn4)cn3)(C1)C2)[C@H]1C[C@@H](O)c2cc(Cl)c(Br)cc2O1 [Compound 380, (2R,4R)-7-bromo-6-chloro-4-hydroxy-N-(3-{4-[5-(trifluoromethoxy)pyridin-2-yl]-1H-pyrazol-1-yl}bicyclo[1.1.1]pentan-1-yl)-3,4-dihydro-2H-1-benzopyran-2-carboxamide]	< 10
O=C(N[C@H]1CC[C@H](n2cc(OCCCC(F)(F)F)cn2)CC1)[C@H]1C[C@@H](O)c2cc(Cl)c(F)cc2O1 [Compound 527, (2R,4R)-6-chloro-7-fluoro-4-hydroxy-N-((1r,4R)-4-[4-(4,4,4-trifluorobutoxy)-1H-pyrazol-1-yl]cyclohexyl)-3,4-dihydro-2H-1-benzopyran-2-carboxamide]	< 10
COc1cc2cn(C34CC(NC(=O)[C@H]5C[C@@H](O)c6cc(Cl)ccc6O5)(C3)C4)nc2cn1 [Compound 497, (2R,4R)-6-chloro-4-hydroxy-N-[3-(5-methoxy-2H-pyrazolo[3,4-c]pyridin-2-yl)bicyclo[1.1.1]pentan-1-yl]-3,4-dihydro-2H-1-benzopyran-2-carboxamide]	10 to 50
CCOC(=O)OC[C@@H]1C[C@H]1c1cn(C23CC(NC(=O)[C@H]4C[C@@H](O)c5cc(Cl)ccc5O4)(C2)C3)nn1 (mixture of isomers) [Compound 543, ((1RS,2RS)-2-[1-(3-{[(2R,4R)-6-chloro-4-hydroxy-3,4-dihydro-2H-1-benzopyran-2-carbonyl]amino}bicyclo[1.1.1]pentan-1-yl)-1H-1,2,3-triazol-4-yl]cyclopropyl)methyl ethyl carbonate]	< 10
O=C(CO[C@H]1C[C@@H](OC(F)(F)F)C1)NC12CCC(NC(=O)[C@H]3C[C@@H](O)c4cc(Cl)ccc4O3)(CC1)C[C@@H]2O [Compound 117, (2R,4R)-6-chloro-4-hydroxy-N-[(3S)-3-hydroxy-4-(2-{[(1s,3R)-3-(trifluoromethoxy)cyclobutyl]oxy}acetamido)bicyclo[2.2.2]octan-1-yl]-3,4-dihydro-2H-1-benzopyran-2-carboxamide]	< 10
O=C(COc1ccc(C(F)(F)F)c(F)c1)N[C@H]1CC[C@H](n2cc(C(=O)N3CC[C@H](OC(F)(F)F)C3)cn2)CC1 [Compound 614, 2-[3-fluoro-4-(trifluoromethyl)phenoxy]-N-[(1S,4r)-4-{4-[(3S)-3-(trifluoromethoxy)pyrrolidine-1-carbonyl]-1H-pyrazol-1-yl}cyclohexyl]acetamide]	< 10
O=C(NC12CC(n3cc(OC[C@H]4C[C@H](OC(F)(F)F)C4)cn3)(C1)C2)[C@H]1C[C@@H](O)c2cc(Cl)ccc2O1 [Compound 584, (2R,4R)-6-chloro-4-hydroxy-N-[3-(4-{[(1r,3R)-3-(trifluoromethoxy)cyclobutyl]methoxy}-1H-pyrazol-1-yl)bicyclo[1.1.1]pentan-1-yl]-3,4-dihydro-2H-1-benzopyran-2-carboxamide]	< 10
O=C(COc1ccc(Cl)c(F)c1)NC12CC(n3cc(C(=O)N4CC[C@H](OC(F)(F)F)C4)nn3)(C1)C2 [Compound 599, 2-(4-chloro-3-fluorophenoxy)-N-(3-{4-[(3S)-3-(trifluoromethoxy)pyrrolidine-1-carbonyl]-1H-1,2,3-triazol-1-yl}bicyclo[1.1.1]pentan-1-yl)acetamide]	< 10
O=C(NC12CC(c3ccnc(OCCOC(F)(F)F)n3)(C1)C2)[C@H]1C[C@@H](O)c2cc(C(F)(F)F)c(F)cc2O1 [Compound 593, (2R,4R)-7-fluoro-4-hydroxy-N-(3-{2-[2-(trifluoromethoxy)ethoxy]pyrimidin-4-yl}bicyclo[1.1.1]pentan-1-yl)-6-(trifluoromethyl)-3,4-dihydro-2H-1-benzopyran-2-carboxamide]	10 to 50
O=C(NC12CC(n3cc(C(=O)N4CC[C@H](F)C4)cn3)(C1)C2)[C@H]1C[C@@H](O)c2cc(Cl)ccc2O1 [Compound 382, (2R,4R)-6-chloro-N-(3-{4-[(3S)-3-fluoropyrrolidine-1-carbonyl]-1H-pyrazol-1-yl}bicyclo[1.1.1]pentan-1-yl)-4-hydroxy-3,4-dihydro-2H-1-benzopyran-2-carboxamide]	50 to 250
O=C(NC12CC(n3cc(C(=O)N4CCC(C(F)(F)F)C4)cn3)(C1)C2)[C@H]1C[C@@H](O)c2cc(Cl)ccc2O1 (stereo partly drawn) [Compound 535, (2R,4R)-6-chloro-4-hydroxy-N-(3-{4-[3-(trifluoromethyl)pyrrolidine-1-carbonyl]-1H-pyrazol-1-yl}bicyclo[1.1.1]pentan-1-yl)-3,4-dihydro-2H-1-benzopyran-2-carboxamide]	10 to 50
O=C(NC12CC(n3cc(-c4ccc(C(F)F)cn4)cn3)(C1)C2)[C@H]1C[C@@H](O)c2cc(Cl)c(F)cc2O1 [Compound 569, (2R,4R)-6-chloro-N-(3-{4-[5-(difluoromethyl)pyridin-2-yl]-1H-pyrazol-1-yl}bicyclo[1.1.1]pentan-1-yl)-7-fluoro-4-hydroxy-3,4-dihydro-2H-1-benzopyran-2-carboxamide]	< 10
O=C(NC12CC(n3cc(-c4ccc(OC(F)(F)F)cn4)cn3)(C1)C2)[C@H]1C[C@H](O)c2cc(Cl)ccc2O1 [Compound 545, (2R,4S)-6-chloro-4-hydroxy-N-(3-{4-[5-(trifluoromethoxy)pyridin-2-yl]-1H-pyrazol-1-yl}bicyclo[1.1.1]pentan-1-yl)-3,4-dihydro-2H-1-benzopyran-2-carboxamide]	< 10
COc1ncc(-c2cnn(C34CC(NC(=O)[C@@H]5C[C@@H](O)c6cc(Cl)ccc6O5)(C3)C4)c2)cn1 [Compound 396, (2S,4R)-6-chloro-4-hydroxy-N-{3-[4-(2-methoxypyrimidin-5-yl)-1H-pyrazol-1-yl]bicyclo[1.1.1]pentan-1-yl}-3,4-dihydro-2H-1-benzopyran-2-carboxamide]	50 to 250
CCOc1ccc2nn(C34CC(NC(=O)COc5ccc(Cl)c(Cl)c5)(C3)C4)cc2c1 [Compound 623, 2-(3,4-dichlorophenoxy)-N-[3-(5-ethoxy-2H-indazol-2-yl)bicyclo[1.1.1]pentan-1-yl]acetamide]	< 10
